Test [1] concerns rabbit knee joint cartilage primary culture cells. Kind of test: Proteoglycan degradation/release in rabbit knee joint cartilage primary culture cells (35S label). The test is classed as cell-based. The method, then:
After killing a rabbit (Japanese white species, male, 1.0 to 1.5 kg) under excess anesthesia, a knee joint was excised and the cartilage layer on the joint surface was removed and finely cut using a surgical knife. The cut pieces were treated with trypsin-EDTA (0.25%-1 mM; mfd. by GIBCO-BRL) at 37° C. for 1 hour and then centrifuged at 1,500 rpm for 5 minutes, and the resulting precipitate was washed with DMEM. This was treated with collagenase A (0.15%; Boehringer-Mannheim)/DMEM at 37° C. for 3 to 4 hours, and then a nylon mesh filter (100 μm, mfd. by Falcon)-passed fraction was centrifuged at 1,500 rpm for 5 minutes to effect precipitation of cartilage cells. The cells were thoroughly washed with DMEM/10% FBS medium, suspended in DMEM/10% FBS medium to a density of 2×10^5 cells/ml and then inoculated in 200 μl/well portions into an I type collagen-coated 96 well plate (mfd. by Asahi Technoglass). Three days thereafter, the medium was changed to 200 μof DMEM/10% FBS medium containing 50 μg/ml of ascorbic acid (ascorbic acid medium hereinafter), and the culturing was continued for 3 days. When an I type collagen-coated 6 well plate (Asahi Technoglass) was used, the cell suspension was inoculated in 6 ml/well portions and cultured by carrying out the same medium exchange. These cells were used in the following test.
The rabbit knee joint cartilage primary culture cells of 96 well plate described in Example 11-1 were cultured for 2 days using 200 μl of the ascorbic acid medium supplemented with 10 μCi/ml in final concentration of Na2^35SO4 and labeled therewith, washed 3 times with 200 μl of the ascorbic acid medium and then cultured for 1 day using 200 μl of the ascorbic acid medium. After stimulation with IL-1β or all-trans retinoic acid and subsequent 0, 24, and 48 hours of culturing, the culture supernatants were recovered in 20 μl portions, and the radioactivity was measured using Top Count (mfd. by Packard).
Each of the compounds A, B, C and D selected by the screening system of Example 10-2 was added to the proteoglycan degradation system of rabbit knee joint cartilage primary culture cells just before the stimulation with 10 μM of all-trans retinoic acid, and their proteoglycan degradation inhibitory activities were examined.

The test system of test [2] is MDTS6 mRNA. Kind of test: Induction of MDTS6 mRNA expression in rabbit knee joint cartilage primary culture cells (RT-PCR). As to conditions: 10 ng/ml of IL-1β or 10 μM of all-trans retinoic acid; 2 and 6 hours. The test is classed as cell-based. Here is the method:
After 3 days of culturing of the rabbit knee joint cartilage primary culture cells of 6 well plate described in Example 11-1 by changing the medium to ascorbic acid medium, 10 ng/ml of IL-1β or 10 μM of all-trans retinoic acid was added thereto, and total RNA samples 2 and 6 hours thereafter were prepared using ISOGEN (mfd. by Nippon Gene) in accordance with the attached instructions. Each of the samples was treated with DNase I (mfd. by Nippon Gene), subjected to phenol/chloroform treatment and then recovered by ethanol precipitation, and the thus purified total RNA was dissolved in DEPC-treated sterile water. Using random hexamers as primers, 1 μg of this total RNA was subjected to reverse transcription reaction and RNase H treatment using Thermoscript™ RT-PCR System (mfd. by GIBCO-BRL, catalog number 11146-016) in accordance with the attached instructions, and the product was diluted 10 times with sterile water and used as a cDNA sample. Using 5 μl of each of the thus obtained cDNA samples as the template and the oligoDNA sequences represented by SEQ ID NO:18 and SEQ ID NO:19 as primers, PCR was carried out under a condition of 94° C. for 2 minutes, 45 repetitions of a cycle of 94° C. for 30 seconds, 65° C. for 30 seconds and 72° C. for 30 seconds, and subsequent 72° C. for 10 minutes. […]

In test [3] the test system is MDTS6 mRNA. Briefly: Expression induction of MDTS6 mRNA in ATDC5 cells (RT-PCR). The class given is cell-based, mouse. Conditions: insulin-differentiated, IL-1β 5 ng/ml for 0, 1, 2, 4 or 8 hours. The method, then: It is known that a mouse cell strain ATDC5 is differentiated into a chondrocyte-like cell by insulin treatment (Atsumi T. et al., Cell Differ. Dev., 30, 109-116, 1990). The ATDC5 cells were inoculated in 4×10^5/well portions into an I type collagen-coated 6 well plate (mfd. by Asahi Technoglass) and cultured for 2 days using DMEM/HamF12 (1:1)/5% FCS medium, the medium was changed to DMEM/HamF12 (1:1)/5% FCS medium containing insulin (final concentration 30 ng/ml) and 50 μg/ml of L-ascorbic acid and the culturing was continued for 5 days, and then the resulting cells were treated for 0, 1, 2, 4 or 8 hours by adding IL-1β (final concentration 5 ng/ml). Total RNA was prepared from each of the treated groups using ISOGEN (mfd. by Nippon Gene), and RT-PCR was carried out using 1 μg portion thereof as the template and using BcaBEST™ RNA PCR Kit (mfd. by Takara Shuzo). The reverse transcription reaction was carried out using Oligo dT-Adaptor Primer as the primer in accordance with the attached instructions, and PCR was carried out using oligoDNA sequences represented by SEQ ID NO:15 and SEQ ID NO:16 as primers, which had been synthesized based on the 3′ non-translation region of MDTS6, by the reaction of 94° C. for 2 minutes, 40 repetitions of a cycle of 94° C. for 30 seconds, 60° C. for 30 seconds and 72° C. for 30 seconds, and subsequent 72° C. for 7 minutes. […]

Test [4] deals with T1, MDTS6Cys (Homo sapiens, UniProt Q8TE58).
T1 construct: made in house; host or cells: HEK293-EBNA cells; unpurified culture supernatant used as enzyme source
T1 sequence (Q8TE58 213-687): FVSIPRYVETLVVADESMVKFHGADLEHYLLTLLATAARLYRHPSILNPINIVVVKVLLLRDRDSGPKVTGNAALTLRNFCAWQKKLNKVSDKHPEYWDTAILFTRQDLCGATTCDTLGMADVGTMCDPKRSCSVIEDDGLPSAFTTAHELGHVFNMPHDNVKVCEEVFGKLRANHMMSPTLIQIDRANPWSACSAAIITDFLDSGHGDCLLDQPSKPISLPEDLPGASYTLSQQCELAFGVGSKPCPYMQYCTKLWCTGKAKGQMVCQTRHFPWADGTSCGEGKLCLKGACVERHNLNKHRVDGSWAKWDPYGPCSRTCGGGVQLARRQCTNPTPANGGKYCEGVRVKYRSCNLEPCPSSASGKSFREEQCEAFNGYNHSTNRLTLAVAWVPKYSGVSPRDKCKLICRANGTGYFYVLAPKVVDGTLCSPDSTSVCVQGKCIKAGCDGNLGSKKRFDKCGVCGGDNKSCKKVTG
Briefly: ELISA screening system for aggrecanase activity inhibition (anti-aggrecanase neoepitope antibody). The test is classed as biochemical. As to conditions: MDTS6Cys culture supernatant, recombinant aggrecan G1G2 substrate, 37° C. for several hours; read-out: aggrecanase activity inhibition strength (IC50). For orientation: In an ELISA, binding on a coated surface is turned into a signal by an enzyme label.
Description: The criterion to screen a substance which inhibits the aggrecanase activity is preferably 10 μM or less, more preferably 1.0 μM or less, as inhibition activity strength (IC50)

As to “IL-1β: cytokine used to stimulate proteoglycan release and MDTS6 mRNA expression”, the “release of proteoglycan (increase in radioactivity of culture supernatant)” value in test [1] (stimulation with 0.01 to 10 ng/ml IL-1β or 0.1 to 10 μM all-trans retinoic acid, 0, 24, 48 hours of culturing) is “increase in the radioactivity, namely release of proteoglycan, was observed”. Also, the figures for the “expression of the MDTS6 mRNA” value in test [2] and in test [3] were “induced” and “transiently induced”, respectively.

With `CNC(=O)[C@H](Cc1ccccc1)NC(=O)C(CC(C)C)C(CS)C(=O)NO` (stereo partly drawn) [compound B, N^α-[2-(1-hydroxycarbamoyl-2-sulfanylethyl)-4-methylpentanoyl]-N-methylphenylalanineamide], the IC50 in test [4] amounted to 1000 nM. Also, the “inhibition of proteoglycan degradation (in words, FIG. 8)” value in test [1] (compound added just before stimulation with 10 μM of all-trans retinoic acid) is “inhibition of proteoglycan degradation in a concentration-dependent manner”.

As usually defined, the IC50 is the concentration that inhibits the measured activity by half.

The values above are taken from US6716613B1, “Metalloprotease having aggrecanase activity” (Yamanouchi Pharmaceutical Co., Ltd., priority 1999, dated 2004).
